Here are results for five compounds from US10168342B2, “Lipid probes and uses thereof” (THE SCRIPPS RESEARCH INSTITUTE, priority 2015, dated 2019).

Experiment [1] has as its target AEA-DA lipid probe targets in Neuro2a cells (Mus musculus, UniProt O88545).
In experiment [2] the target is T1, AEA-DA lipid probe targets in Neuro2a cells (Mus musculus, UniProt Q8BVE8).
T1 sequence (Q8BVE8 1-1365): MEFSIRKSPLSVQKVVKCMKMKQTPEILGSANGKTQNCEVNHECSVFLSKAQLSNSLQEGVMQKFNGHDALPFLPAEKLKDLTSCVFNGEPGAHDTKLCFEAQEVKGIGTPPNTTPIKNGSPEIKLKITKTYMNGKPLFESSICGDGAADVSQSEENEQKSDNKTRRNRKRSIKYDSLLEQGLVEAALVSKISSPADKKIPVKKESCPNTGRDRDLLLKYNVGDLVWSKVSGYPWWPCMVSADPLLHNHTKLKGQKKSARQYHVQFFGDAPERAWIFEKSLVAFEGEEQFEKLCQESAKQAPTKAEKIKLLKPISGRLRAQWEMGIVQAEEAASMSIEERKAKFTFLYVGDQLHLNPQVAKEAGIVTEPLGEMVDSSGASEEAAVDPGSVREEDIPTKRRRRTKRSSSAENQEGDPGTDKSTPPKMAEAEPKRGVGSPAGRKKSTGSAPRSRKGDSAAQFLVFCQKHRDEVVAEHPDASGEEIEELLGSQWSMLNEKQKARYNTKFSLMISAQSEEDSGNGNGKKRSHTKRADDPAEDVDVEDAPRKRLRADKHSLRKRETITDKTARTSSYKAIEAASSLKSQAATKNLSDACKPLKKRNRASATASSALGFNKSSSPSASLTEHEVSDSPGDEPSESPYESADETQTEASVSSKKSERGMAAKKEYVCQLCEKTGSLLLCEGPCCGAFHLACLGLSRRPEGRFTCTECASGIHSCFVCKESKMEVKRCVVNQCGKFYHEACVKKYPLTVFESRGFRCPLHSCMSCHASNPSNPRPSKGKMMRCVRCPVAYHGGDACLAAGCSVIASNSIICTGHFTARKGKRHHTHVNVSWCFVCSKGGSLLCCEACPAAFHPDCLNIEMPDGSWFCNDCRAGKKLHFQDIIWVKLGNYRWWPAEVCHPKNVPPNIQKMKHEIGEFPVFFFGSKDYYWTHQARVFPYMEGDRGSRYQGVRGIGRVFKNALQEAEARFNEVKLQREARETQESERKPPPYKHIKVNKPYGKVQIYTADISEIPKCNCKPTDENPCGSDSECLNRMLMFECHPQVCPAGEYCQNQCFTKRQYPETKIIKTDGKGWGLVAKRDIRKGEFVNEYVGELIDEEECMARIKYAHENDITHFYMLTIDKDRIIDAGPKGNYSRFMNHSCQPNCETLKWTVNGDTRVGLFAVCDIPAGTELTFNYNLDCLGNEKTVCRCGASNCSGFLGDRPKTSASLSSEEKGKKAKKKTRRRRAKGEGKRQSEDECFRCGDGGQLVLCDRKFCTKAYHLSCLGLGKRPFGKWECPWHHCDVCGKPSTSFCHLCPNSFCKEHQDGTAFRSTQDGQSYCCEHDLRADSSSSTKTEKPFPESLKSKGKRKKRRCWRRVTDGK

Experiment [3] deals with T2, AEA-DA lipid probe targets in Neuro2a cells (Mus musculus, UniProt Q921T2).
T2 sequence (Q921T2 1-595): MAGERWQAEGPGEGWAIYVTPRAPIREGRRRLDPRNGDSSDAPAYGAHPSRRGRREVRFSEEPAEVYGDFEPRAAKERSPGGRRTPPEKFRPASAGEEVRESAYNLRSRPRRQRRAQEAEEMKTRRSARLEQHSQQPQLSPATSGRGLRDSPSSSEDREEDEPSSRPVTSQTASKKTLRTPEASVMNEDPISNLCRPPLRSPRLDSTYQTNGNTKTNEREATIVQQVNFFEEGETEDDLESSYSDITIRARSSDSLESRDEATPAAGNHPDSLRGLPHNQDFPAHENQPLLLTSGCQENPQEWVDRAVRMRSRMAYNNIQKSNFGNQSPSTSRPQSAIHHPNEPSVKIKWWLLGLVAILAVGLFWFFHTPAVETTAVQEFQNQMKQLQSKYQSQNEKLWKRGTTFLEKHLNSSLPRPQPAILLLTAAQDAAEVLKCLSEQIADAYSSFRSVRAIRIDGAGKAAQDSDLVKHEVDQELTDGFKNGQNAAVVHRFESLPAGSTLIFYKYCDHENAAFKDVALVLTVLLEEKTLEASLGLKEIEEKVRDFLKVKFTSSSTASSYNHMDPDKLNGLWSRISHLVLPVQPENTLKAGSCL

The target in experiment [4] is AEA-DA lipid probe targets in Neuro2a cells (Mus musculus, UniProt Q3UV70). Particulars: protein Pdp1; Neuro2a cells; competitor 25 μM.
Chain of AEA-DA lipid probe targets in Neuro2a cells (Mus musculus, UniProt Q3UV70) (Q3UV70 72-538): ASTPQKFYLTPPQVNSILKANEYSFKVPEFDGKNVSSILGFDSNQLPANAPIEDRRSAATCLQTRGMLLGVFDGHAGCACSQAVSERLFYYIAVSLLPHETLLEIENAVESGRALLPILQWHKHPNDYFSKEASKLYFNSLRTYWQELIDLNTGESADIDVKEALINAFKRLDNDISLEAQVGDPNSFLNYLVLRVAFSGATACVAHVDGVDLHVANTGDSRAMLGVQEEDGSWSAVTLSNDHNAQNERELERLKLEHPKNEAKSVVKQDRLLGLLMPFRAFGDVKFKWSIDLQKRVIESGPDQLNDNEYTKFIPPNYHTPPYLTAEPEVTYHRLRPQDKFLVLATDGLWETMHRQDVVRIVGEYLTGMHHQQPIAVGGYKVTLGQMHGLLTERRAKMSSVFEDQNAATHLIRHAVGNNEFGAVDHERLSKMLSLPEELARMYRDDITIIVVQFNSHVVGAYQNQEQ
For experiment [5], the target named is AEA-DA lipid probe targets in Neuro2a cells (Mus musculus, UniProt Q78IK4). The conditions noted are these: protein Apool; Neuro2a cells; competitor 25 μM.
Chain of AEA-DA lipid probe targets in Neuro2a cells (Mus musculus, UniProt Q78IK4) (Q78IK4 28-265): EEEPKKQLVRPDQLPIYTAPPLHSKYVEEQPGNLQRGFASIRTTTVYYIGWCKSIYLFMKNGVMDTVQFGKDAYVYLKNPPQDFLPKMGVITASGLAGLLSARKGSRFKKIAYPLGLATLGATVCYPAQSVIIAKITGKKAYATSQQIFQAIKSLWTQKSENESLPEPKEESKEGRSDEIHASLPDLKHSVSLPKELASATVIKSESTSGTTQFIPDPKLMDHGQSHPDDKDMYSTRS
Experiment [6] has as its target AEA-DA lipid probe targets in Neuro2a cells (Mus musculus, UniProt Q99KI3). The conditions noted are these: competitor 25 μM.

Where two headings read alike, the source gives them in different places.

Chain of AEA-DA lipid probe targets in Neuro2a cells (Mus musculus, UniProt Q99KI3) (Q99KI3 whole entry): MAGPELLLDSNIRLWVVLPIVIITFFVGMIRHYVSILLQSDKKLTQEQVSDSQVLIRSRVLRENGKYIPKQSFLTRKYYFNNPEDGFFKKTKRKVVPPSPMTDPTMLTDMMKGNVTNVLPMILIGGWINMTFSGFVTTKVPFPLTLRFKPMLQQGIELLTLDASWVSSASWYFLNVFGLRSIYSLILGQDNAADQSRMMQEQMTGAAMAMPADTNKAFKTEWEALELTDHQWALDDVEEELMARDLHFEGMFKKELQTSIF
Chain of AEA-DA lipid probe targets in Neuro2a cells (Mus musculus, UniProt O88545) (O88545 whole entry): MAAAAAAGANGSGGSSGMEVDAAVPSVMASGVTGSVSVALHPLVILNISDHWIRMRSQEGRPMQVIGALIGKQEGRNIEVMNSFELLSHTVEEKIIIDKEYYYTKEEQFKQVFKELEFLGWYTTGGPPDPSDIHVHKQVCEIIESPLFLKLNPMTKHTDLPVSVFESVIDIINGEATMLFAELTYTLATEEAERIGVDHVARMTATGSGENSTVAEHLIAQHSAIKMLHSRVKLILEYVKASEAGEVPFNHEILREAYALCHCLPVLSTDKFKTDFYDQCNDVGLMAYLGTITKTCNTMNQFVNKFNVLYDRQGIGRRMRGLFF

As for `CCCCC/C=C\C/C=C\C/C=C\C/C=C\CCCC(=O)NCCO` [AEA, anandamide, reference compound], in experiment [1] (competitor 200 μM), the “SILAC ratio Cops6” value stood at 1.4. Also, the “SILAC ratio Whsc1” value in experiment [2] (competitor 200 μM) is 1.0. Besides, the “SILAC ratio Tor1aip1” value in experiment [3] (competitor 200 μM) is 1.5.
On to `O=C(/C=C/c1cccnc1)NCCCCC1CCN(C(=O)c2ccccc2)CC1` [FK-866, reference compound], for which the “SILAC ratio (AEA-DA competition)” value in experiment [4] is on record as 0.9.
In the case of `CN1CCN(C(=O)c2c(-c3ccccc3)c3cc([N+](=O)[O-])ccc3n2C)CC1` [KML110, (1-Methyl-5-nitro-3-phenyl-1H-indol-2-yl)(4-methylpiperazin-1-yl)methanone], in experiment [5], the “SILAC ratio (AEA-DA competition)” value came to 1.0. Further, the “SILAC ratio Emc3” value in experiment [6] is 1.0.
As to `CN1CCN(C(=O)c2[nH]c3ccc([N+](=O)[O-])cc3c2-c2ccccc2)CC1` [MJN228, (4-Methylpiperazin-1-yl)(5-nitro-3-phenyl-1H-indol-2-yl)methanone], the “SILAC ratio Cops6” value in experiment [1] (competitor 100 μM) is recorded as 1.2. Besides, the “SILAC ratio (AEA-DA competition)” value in experiment [4] amounted to 1.4. Further, the “SILAC ratio Whsc1” value is 1.4 in experiment [2] (competitor 10 μM), 1.2 in experiment [2] (competitor 25 μM) and 1.6 in experiment [2] (competitor 100 μM). Moreover, the “SILAC ratio Tor1aip1” value was determined as 1.3 in experiment [3] (competitor 10 μM), 1.3 in experiment [3] (competitor 25 μM), 1.3 in experiment [3] (competitor 50 μM) and 2.0 in experiment [3] (competitor 100 μM).
`C=CCN(C)CCCCCCOc1ccc(C(=O)c2ccc(Br)cc2)c(F)c1` [Ro 48-8071, reference compound]: the “SILAC ratio (AEA-DA competition)” value in experiment [5] is listed as 0.9. In addition, in experiment [6], the “SILAC ratio Emc3” value is 1.5.
